# Test results published in patent US20180369186A1, “METHOD FOR MODULATING AUTOPHAGY AND APPLICATIONS THEREOF” (JAWAHARLAL NEHRU CENTRE FOR ADVANCED SCIENTIFIC RESEARCH, priority 2015, published 2018).
# How the values were obtained:
# [1] = tested on: HeLa cells (autophagosomes and autolysosomes); assay: Tandem RFP-GFP-LC3B (traffic light) assay in HeLa cells; type: cell-based, human
# Protocol: Transfection is done on a 60 mm dish with HeLa cells at 60-70% confluency. Cells were transfected with tandem RFP-GFP-MAP1LC3B construct (Addgene plasmid #21074) using 5 μl of Lipofectamine 2000 (11668-019, Invitrogen) and 2.5 μg of DNA (2:1 ratio) diluted in 100 μl of OPTI-MEM (31985-070, Invitrogen) separately. 72 hours after transfection cells are either left untreated or treatment with various concentrations of Bay11-7082 ZPCK is done for 2 hours. Starvation is induced by treating cells with Earle's balanced salt solution (EBBS). After treatment, cells are fixed in 4% paraformaldehyde and permeabilized using 0.25% Triton X-100, The coverslip is mounted with […] antifade reagent (H-1000, Vector laboratories). Imaging for HeLa cells is carried out using Delta vision microscope (Olympus 60×/1.4, Plan ApoN, excitation and emission filter Cy5, FITC and TRITC, polychroic Quad).
# For tandem RFP-EGFP-LC3 assay, sub-confluent cells are seeded in 60 mm dishes, transfected with ptf LC3 construct and allowed to express for 24 h. Later, cells are trypsinized, reseeded (10^5 cells) and allowed to attach on cover slips in a 12 well plate.
# For mammalian cell microscopy, after 2 h of treatment, coverslips are fixed using 4% paraformaldehyde (PFA) (Sigma) and permeabilized using Triton X-100 (0.2%, HiMedia). Coverslips are mounted using antifade, Vectashield (Vector laboratories). For antibody staining, coverslips are blocked in 5% BSA for 1 h, incubated in primary antibody overnight and subsequent probing with fluorescent conjugated antibody. Coverslips are mounted using antifade, Vectashield (Vector laboratories).
# Images are acquired using DeltaVisionElitewidefield microscope (API, GE) with following filters: DAPI (390/18 and 435/48), FITC (490/20 and 529/38), TRITC (542/27 and 594/45) and Cy5 (632/22 and 676/34). Images are processed using DV SoftWoRX software. Autophagosome (yellow) and autolysosome (red) are counted using Cell Counter plug-in in ImageJ software (NIH) and graphically represented as fold difference versus untreated (FIG. 3E).
# Sub-confluent HeLa and/or SH-SY5Y cells are seeded into 60 mm cell culture dishes, then transfected with ptf LC3 construct and/or siRNA and allowed to express for 48 h. Cells are trypsinized, seeded again on poly-D-lysine coated cover slips in a 12 or 24 well plates and allowed to attach. After appropriate treatments, the coverslips containing cells are processed for imaging. For immunofluorescent antibody staining, the cover slips are incubated in primary antibody at 4° C. for overnight followed by secondary antibody incubation at room temperature.
# For imaging the mammalian cells, after appropriate treatments, coverslips containing cells are fixed using 4% paraformaldehyde (PFA) (Sigma) and then permeabilized using Triton X-100 (0.2%, HiMedia). On slide, coverslips are mounted using antifade, Vectashield mounting medium (Vector laboratories). For antibody staining, coverslips are blocked using 5% BSA for 1 h at room temperature, then incubated with primary antibody at 4° C., overnight and then subsequently probed with corresponding fluorescent dye conjugated secondary antibody.
# [2] = tested on: TH+ dopaminergic neurons in SNpc; assay: MPTP mouse model: TH+ dopaminergic neurons in SNpc (stereology, densitometry, volume); type: in vivo, mice
# Protocol: As described by Vernice Jackson-Lewis & Serge Przedborski (2007), 23.4 mg/kg MPTP.HCl (equivalent to 20 mg/kg free base) in 10 ml/kg body wt. of saline is administered intraperitoneally (i.p.) for 4 times at 2 h intervals.
# All mice are sacrificed 9 days post MPTP administration and brains are processed for immunohistochemistry.
# Mice are anaesthetized using Halothane BP (Piramal Healthcare) inhalation and perfused intracardially with normal saline followed by 4% PFA in 0.1 M phosphate buffer, pH 7.4. Brains are removed quickly and post-fixed with 4% PFA for 24 h-48 h at 4° C. Following cryoprotection in 15% and 30% sucrose, 40 μm thick coronal cryosections of midbrain are collected serially on gelatinized slides. Immunoperoxidase labelling protocol as identical to that reported. Briefly, endogenous peroxidase is quenched using H2O2 (0.1%) in methanol (70%), followed by blocking of non-specific staining by buffered solution (3%) of bovine serum albumin for 4 h at room temperature. Sections are incubated with TH primary antibody (1:500) followed by biotin conjugated secondary antibody (1:200 dilution, Vector Laboratories). Tertiary labelling is performed with avidin-biotin complex solution (1:100, Vector Laboratories). Staining is visualized using 3′-3′-diaminobenzidine (0.05%) as a chromogen in a solution of 0.1M acetate imidazole buffer (pH 7.4) and H2O2 (0.1%). Negative controls are processed identically, except that primary antibody is replaced with dilution buffer.
# As described by Y. Fu et al., SNpcis delineated using the 4× objective of Olympus BX61 Microscope (Olympus) equipped with Stereo Investigator Software Version 7.2 (MicroBrightField). Stereological quantification is performed using optical fractionator probe with slight modifications(P. A. Alladi et al.). Briefly, every sixth midbrain section containing SNpc is chosen and TH^+ cells are counted under 100× objective, with a regular grid interval of 22500 μm^2 (x=150 μm, y=150 μm) and counting frame with an area of 3600 μm^2 (x=60 μm, y=60 μm) (FIG. 10B). Mounted thickness is determined at every fifth site, averaging to 25 μm. Guard zone 4 μm is applied on either side, thus providing 17 μm of z-dimension within optical dissector. The quantification is performed starting with first anterior appearance of TH^+ neurons in SNpc to caudal most part. The SNpc volume is determined by planimetry (FIG. 10C) and total numbers of neurons according to mean measured thickness are noted.
# High magnification images of TH stained nigral DAergic neurons, captured for offline assessment of Tyrosine Hydroxylase (TH) enzyme expression levels=used. Expression intensity is measured using a Windows based image analysis system (Q Win V3, Leica Systems). Cumulative mean is derived from the values obtained from sampling, approximately 200 DAergic neurons per animal. Intensity output is measured on a grey scale of 0-255, where 0 equals intense staining and 255 means absence of staining.
# The mice are distributed into three groups' viz., vehicle, MPTP and MPTP+XCT 790 injected respectively. The vehicle group receives intraperitoneal injections of dimethyl sulfoxide (DMSO) injections i.e. the solvent. The MPTP group receives 23.4 mg/kg MPTP.HCl in 10 ml/kg body wt. of saline is administered intraperitoneally for 4 times at 2 h interval. The MPTP+XCT 790 group mice are injected with 5 mg/kg body wt, of XCT 790 dissolved in DMSO, alongside the first MPTP injection. […]
# [3] = HeLa, 2 h, 2.5 μM Bay11, 25 μM ZPCK
# [4] = HeLa, ERRα Flag transfected 48 h, 5 μM, 2 h
structure (smiles),measurement,setting,value
"O=C1Nc2cc(Br)ccc2/C1=C1/Nc2ccccc2/C1=N\O [6-Bio, (2′Z,3′E)-6-Bromoindirubin-3′-oxime]",fusion between autophagosomes and lysosomes at 16° C.,"[1]; HeLa, 16° C. (endocytosis reduced), control vs treated",~8 fold
same,fusion between autophagosomes and lysosomes at 37° C.,"[1]; HeLa, 37° C., control vs treated",~10 fold
same,autolysosomes in GSK3B silenced cells vs only treated cells,[1]; shRNA GSK3B silenced cells,significantly reduced
same,decrease in SNpc volume upon MPTP administration,"[2]; 5 mg/kg i.p., Co and Pro groups",not seen
"Cc1ccc(S(=O)(=O)/C=C/C#N)cc1 [Bay11, 3-[(4-methylphenyl)sulfonyl]-(2E)-propenenitrile]",number of autolysosomes (mRFP+/GFP− puncta),[1]; [3],decreased
same,number of autophagosomes (mRFP+/GFP+ puncta),[1]; [3],decreased the number of autophagosomes
same,step of action relative to Bafilomycin A1 (BFA),"[1]; HeLa, with Bafilomycin A1 (400 nM)",step prior to BFA action
"COc1cc(C=C(C#N)C(=O)Nc2nnc(C(F)(F)F)s2)ccc1OCc1ccc(C(F)(F)F)cc1C(F)(F)F [XCT 790, 3-[4-(2,4-Bis-trifluoromethylbenzyloxy)-3-methoxyphenyl]-2-cyano-N-(5-trifluoromethyl-1,3,4-thiadiazol-2-yl)acrylamide]","autolysosome numbers, fold vs control","[1]; HeLa, 5 μM, 2 h",~2 fold
same,"autophagosomes, fold vs control","[1]; HeLa, 5 μM, 2 h",~5 fold
same,"less autolysosomes in ERRα over expressed cells, vs untreated",[1]; [4],~2 fold
same,"more autophagosomes in ERRα over expressed cells, vs untreated",[1]; [4],~2 fold
same,prevention of SNpc volume shrinkage,"[2]; 5 mg/kg, MPTP+Co vs MPTP",approximately 85%
same,alleviation of MPTP induced dopaminergic neuronal loss,"[2]; 5 mg/kg, co-administration with MPTP",80%
